The values below come from PubChem BioAssay AID220 (DTP/NCI, 2004).

“And” between values parts separate entries of the source, which are not always exact repeats. Equal entries are not always repeated. Results filed as inconclusive are left out.

The assay concerns CD8F1 mice, subcutaneous mammary adenocarcinoma, T/C%. In words: NCI In Vivo Anticancer Drug Screen. Data for tumor model Mammary Adenocarcinoma CD8F1 (subcutaneous) in CD8F1. The note with it: higher = larger tumour. An outline of the steps:
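Compound-treated versus vehicle-treated mice with transplantable tumors; survival or tumor size compared as T/C.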

Where [1] appears, read: endpoint: median tumor weight (est.), dose: 25.0 mg/kg/injection, schedule: Q07DX005 (ip), vehicle: saline.

Consider `CC(=O)Nc1ccc(/C=N/NC(N)=S)cc1`, for which the T/C is, setting by setting: (endpoint: median tumor weight change, dose: 31.25 mg/kg/injection, schedule: Q01DX001 (ip), vehicle: Klucel (hydroxypropylcellulose) (HPC)) 96 % of control; (endpoint: median tumor weight change, dose: 62.5 mg/kg/injection, schedule: Q01DX001 (ip), vehicle: Klucel (hydroxypropylcellulose) (HPC)) 84 % of control; (endpoint: median tumor weight change, dose: 125.0 mg/kg/injection, schedule: Q01DX001 (ip), vehicle: Klucel (hydroxypropylcellulose) (HPC)) 103 % of control; (endpoint: median tumor weight change, dose: 250.0 mg/kg/injection, schedule: Q01DX001 (ip), vehicle: Klucel (hydroxypropylcellulose) (HPC)) 48 % of control; (endpoint: median tumor weight change, dose: 500.0 mg/kg/injection, schedule: Q01DX001 (ip), vehicle: Klucel (hydroxypropylcellulose) (HPC)) 99 % of control.

`CC1(C)CC1(Br)Br`: the T/C runs as follows: (endpoint: median tumor weight (est.), dose: 12.5 mg/kg/injection, schedule: Q07DX005 (ip), vehicle: saline with Tween-80) 69 % of control; (endpoint: median tumor weight (est.), dose: 25.0 mg/kg/injection, schedule: Q07DX005 (ip), vehicle: saline with Tween-80) 90 % of control; (endpoint: median tumor weight (est.), dose: 50.0 mg/kg/injection, schedule: Q07DX005 (ip), vehicle: saline with Tween-80) 116 % of control; (endpoint: median tumor weight (est.), dose: 100.0 mg/kg/injection, schedule: Q07DX005 (ip), vehicle: saline with Tween-80) 59 % of control.

Regarding `O=CC(O)C(O)C(O)C(O)CO` (centres undefined), the T/C (endpoint: median tumor weight change, dose: 75.0 mg/kg/injection, schedule: Q01DX001 (ip), vehicle: saline) is 66 % of control; the T/C (endpoint: median tumor weight change, dose: 150.0 mg/kg/injection, schedule: Q01DX001 (ip), vehicle: saline) was 43 % of control; the T/C (endpoint: median tumor weight change, dose: 300.0 mg/kg/injection, schedule: Q01DX001 (ip), vehicle: saline) was 61 % of control; the T/C (endpoint: median tumor weight change, dose: 600.0 mg/kg/injection, schedule: Q01DX001 (ip), vehicle: saline) was 35 % of control; the T/C (endpoint: median tumor weight change, dose: 1200.0 mg/kg/injection, schedule: Q01DX001 (ip), vehicle: saline) is 55 % of control.

Consider `COc1c(O)c2c(c3cc(C(=O)N4CCc5c4c(O)c(OC)c4[nH]c(C(=O)N6CC7CC78C6=CC(=O)c6[nH]cc(C)c68)cc54)[nH]c13)CCN2C(N)=O` (centres undefined), for which the T/C (endpoint: median tumor weight (est.), dose: 6.25 micrograms/kg/injection, schedule: Q07DX005 (ip), vehicle: DMSO) is 97 % of control and the T/C (endpoint: median tumor weight (est.), dose: 12.5 micrograms/kg/injection, schedule: Q07DX005 (ip), vehicle: DMSO) is 42 % of control.

For the compound `COC1C(O)CC(OC2CC(Oc3cc4cc5c(c(O)c4c(O)c3C)C(=O)[C@@H](OC3CC(OC4CC(OC6CC(C)(O)C(OC(C)=O)C(C)O6)C(O)C(C)O4)C(O)C(C)O3)[C@H]([C@H](OC)C(=O)[C@@H](O)[C@@H](C)O)C5)OC(C)C2OC(C)=O)OC1C` (some centres undefined), the T/C (endpoint: median tumor weight (est.), dose: 0.04 mg/kg/injection, schedule: Q07DX005 (ip), vehicle: saline) was 46 % of control; the T/C (endpoint: median tumor weight (est.), dose: 0.09 mg/kg/injection, schedule: Q07DX005 (ip), vehicle: saline) is 93 % of control; the T/C (endpoint: median tumor weight (est.), dose: 0.36 mg/kg/injection, schedule: Q07DX005 (ip), vehicle: saline) is 70 % of control; the T/C (endpoint: median tumor weight (est.), dose: 0.72 mg/kg/injection, schedule: Q07DX005 (ip), vehicle: saline) was 76 % of control and 92 % of control; the T/C (endpoint: median tumor weight change, dose: 0.25 mg/kg/injection, schedule: Q01DX001 (ip), vehicle: saline) was 63 % of control; the T/C (endpoint: median tumor weight change, dose: 0.5 mg/kg/injection, schedule: Q01DX001 (ip), vehicle: saline) is 42 % of control. The T/C (endpoint: median tumor weight change, dose: 1.0 mg/kg/injection, schedule: Q01DX001 (ip), vehicle: saline) is 44 % of control.

As for `NC(=O)NO`, the T/C was 67 % of control under setting [1]; 116 % of control (endpoint: median tumor weight (est.), dose: 100.0 mg/kg/injection, schedule: Q07DX005 (ip), vehicle: saline); 56 % of control (endpoint: median tumor weight (est.), dose: 200.0 mg/kg/injection, schedule: Q07DX005 (ip), vehicle: saline); 48 % of control (endpoint: median tumor weight (est.), dose: 400.0 mg/kg/injection, schedule: Q07DX005 (ip), vehicle: saline); 59 % of control (endpoint: median tumor weight (est.), dose: 800.0 mg/kg/injection, schedule: Q07DX005 (ip), vehicle: saline).

Take `COc1cc(C)c2c(c1C=O)Oc1c(c(C)c(O)c3c1C(O)OC3=O)OC2=O` (centres undefined): the T/C runs as follows: (endpoint: mean tumor weight, dose: 3.12 mg/kg/injection, schedule: Q07DX005 (ip), vehicle: saline) 42 % of control; (endpoint: mean tumor weight, dose: 6.25 mg/kg/injection, schedule: Q07DX005 (ip), vehicle: saline) 49 % of control; (endpoint: mean tumor weight, dose: 25.0 mg/kg/injection, schedule: Q07DX005 (ip), vehicle: saline) 168 % of control; (endpoint: mean tumor weight, dose: 50.0 mg/kg/injection, schedule: Q07DX005 (ip), vehicle: saline) 61 % of control; (endpoint: median tumor weight (est.), dose: 3.12 mg/kg/injection, schedule: Q07DX005 (ip), vehicle: saline) 97 % of control; (endpoint: median tumor weight (est.), dose: 3.12 mg/kg/injection, schedule: Q07DX005 (ip), vehicle: suspension in saline) 89 % of control. For the same compound, the T/C was 114 % of control (endpoint: median tumor weight (est.), dose: 6.25 mg/kg/injection, schedule: Q07DX005 (ip), vehicle: saline); 104 % of control (endpoint: median tumor weight (est.), dose: 6.25 mg/kg/injection, schedule: Q07DX005 (ip), vehicle: suspension in saline); 94 % of control (endpoint: median tumor weight (est.), dose: 12.5 mg/kg/injection, schedule: Q07DX005 (ip), vehicle: suspension in saline); 75 % of control under setting [1]; 96 % of control (endpoint: median tumor weight (est.), dose: 25.0 mg/kg/injection, schedule: Q07DX005 (ip), vehicle: suspension in saline); 96 % of control (endpoint: median tumor weight (est.), dose: 50.0 mg/kg/injection, schedule: Q07DX005 (ip), vehicle: saline). Moreover, the T/C runs as follows: (endpoint: median tumor weight (est.), dose: 50.0 mg/kg/injection, schedule: Q07DX005 (ip), vehicle: suspension in saline) 88 % of control; (endpoint: median tumor weight (est.), dose: 100.0 mg/kg/injection, schedule: Q07DX005 (ip), vehicle: suspension in saline) 90 % of control.

`COc1cc(C2c3cc4c(cc3C(O)C(CO)C2CO)OCO4)cc(OC)c1OC` (centres undefined): the T/C is 85 % of control (endpoint: median tumor weight change, dose: 125.0 mg/kg/injection, schedule: Q01DX001 (ip), vehicle: saline with Tween-80); 102 % of control (endpoint: median tumor weight change, dose: 250.0 mg/kg/injection, schedule: Q01DX001 (ip), vehicle: saline with Tween-80); 77 % of control (endpoint: median tumor weight change, dose: 500.0 mg/kg/injection, schedule: Q01DX001 (ip), vehicle: saline with Tween-80); 95 % of control (endpoint: median tumor weight change, dose: 1000.0 mg/kg/injection, schedule: Q01DX001 (ip), vehicle: saline with Tween-80); 50 % of control (endpoint: median tumor weight change, dose: 2000.0 mg/kg/injection, schedule: Q01DX001 (ip), vehicle: saline with Tween-80).

On to `COc1cc([C@@H]2c3cc4c(cc3[C@@H](OC3OC5CO[C@@H](c6cccs6)OC5C(O)C3O)[C@H]3COC(=O)[C@H]23)OCO4)cc(OC)c1O` (some centres undefined), for which the T/C was 90 % of control and 103 % of control (endpoint: median tumor weight (est.), dose: 2.0 mg/kg/injection, schedule: Q07DX005 (ip), vehicle: suspension in saline); 23 % of control (endpoint: median tumor weight (est.), dose: 4.0 mg/kg/injection, schedule: Q07DX005 (ip), vehicle: saline); 87 % of control and 100 % of control (endpoint: median tumor weight (est.), dose: 4.0 mg/kg/injection, schedule: Q07DX005 (ip), vehicle: suspension in saline); 81 % of control and 92 % of control (endpoint: median tumor weight (est.), dose: 8.0 mg/kg/injection, schedule: Q07DX005 (ip), vehicle: suspension in saline); 47 % of control (endpoint: median tumor weight (est.), dose: 16.0 mg/kg/injection, schedule: Q07DX005 (ip), vehicle: saline); 25 % of control (endpoint: median tumor weight (est.), dose: 32.0 mg/kg/injection, schedule: Q07DX005 (ip), vehicle: saline). Also, the T/C is 51 % of control and 57 % of control (endpoint: median tumor weight (est.), dose: 32.0 mg/kg/injection, schedule: Q07DX005 (ip), vehicle: suspension in saline); 96 % of control (endpoint: median tumor weight change, dose: 20.0 mg/kg/injection, schedule: Q01DX001 (ip), vehicle: suspension in saline); 74 % of control (endpoint: median tumor weight change, dose: 40.0 mg/kg/injection, schedule: Q01DX001 (ip), vehicle: suspension in saline); 91 % of control (endpoint: median tumor weight change, dose: 80.0 mg/kg/injection, schedule: Q01DX001 (ip), vehicle: suspension in saline); 117 % of control (endpoint: median tumor weight change, dose: 160.0 mg/kg/injection, schedule: Q01DX001 (ip), vehicle: suspension in saline); 80 % of control (endpoint: median tumor weight change, dose: 320.0 mg/kg/injection, schedule: Q01DX001 (ip), vehicle: suspension in saline).

For the compound `CC12CC(C(=O)O)C3(O)CC(C)(C1)CC(C)(C2)C3` (centres undefined) (tested in a mixture with another compound), the T/C was 93 % of control (endpoint: median tumor weight (est.), dose: 12.5 mg/kg/injection, schedule: Q07DX005 (ip), vehicle: Klucel (hydroxypropylcellulose) (HPC)); 78 % of control (endpoint: median tumor weight (est.), dose: 25.0 mg/kg/injection, schedule: Q07DX005 (ip), vehicle: Klucel (hydroxypropylcellulose) (HPC)); 56 % of control (endpoint: median tumor weight (est.), dose: 50.0 mg/kg/injection, schedule: Q07DX005 (ip), vehicle: Klucel (hydroxypropylcellulose) (HPC)); 87 % of control (endpoint: median tumor weight (est.), dose: 200.0 mg/kg/injection, schedule: Q07DX005 (ip), vehicle: Klucel (hydroxypropylcellulose) (HPC)); 71 % of control (endpoint: median tumor weight (est.), dose: 400.0 mg/kg/injection, schedule: Q07DX005 (ip), vehicle: Klucel (hydroxypropylcellulose) (HPC)).
